Measured values taken from patent publication US20250368651A1 (priority 2022, published 2025).
Like-named read-outs stand apart in the source and are kept apart here.

Legend:
5′-biotinylated RNA Seq4 = assay: Surface plasmon resonance (SPR) assay, RNA Seq4; assay type: binding; settings: footnote b: SPR assay for RNA Seq4
Protocol: SPR experiments were performed on a Biacore T200 (GE Healthcare) instrument at 25° C. using streptavidin pre-coated SA sensor chips (GE Healthcare). The running buffer composed of 10 mM HEPES, 100 mM NaCl, 0.05% Tween 20 (w/v), 5 mM EDTA, 0.1% (v/v) DMSO at pH 6.8 was prepared freshly, filtered through the […] PVDF membrane prior to use. 5′-biotinylated RNA Seq4 was purchased from GenScript and dissolved in nuclease-free water to a concentration of 100 μM. For immobilization of the biotinylated RNA, the sensor chip was firstly conditioned with 3 consecutive 1 min injections of high salt solution (50 mM NaOH, 1M NaCl) at a flow rate of […]. Next, the biotinylated RNA was diluted 1000× in running buffer (100 nM) and applied over the streptavidin sensor chip surface at a flow rate of 10 μL/min to achieve immobilization level of about 800 RU. Finally, alkyne-PEG-biotin (50 μM in running buffer) was injected (1 min, […]) to block remaining streptavidin surface binding sites. The kinetics analysis was performed following the BiaControl Software Wizard Kinetics protocol. […] All monitored resonance signals were subtracted with signals from a non-binding reference channel. Kinetic values (Kd, ka, kd) were calculated using the BiaEvaluation Software Binding Affinity protocol with 1:1 fitting. […]

DNA Seq6 = assay: Competitive FP binding assay (displacement of SMN-C2 from DNA Seq6); settings: footnote c: FP assay for DNA Seq6; competition with SMN-C2 (0.5 μM) and DNA Seq6 (25 μM); read-out: Kd (apparent, competitive FP)
Protocol: (§1) A 1:2 dilution series (8 points) of each oligonucleotide was prepared in 20-30 μL water to desired concentrations (i.e., 1-128 μM). 20-30 μL 2× working solution containing the 2× assay buffer and the small-molecule ligand was added to each oligonucleotide sample in 1:1 (v/v) and mixed by pipetting for 4 times. For fluorescence polarization measurement, 20 μL of the above 1× working solution was transferred into a 384-well, black, F-bottom microplates (Greiner Bio-One) in duplicates or triplicates. The plate was equilibrated at room temperature for 5 min before being read using a microplate reader (SYNERGY H1, BioTek; Excitation/Emission=360/460 nm) at 25° C. For compound SMN-C5, a competitive binding assay was employed to measure an apparent Kd. SMN-C5 was 1:2 serial diluted for 10 concentration points starting at 750 μM in DMSO. A mixture of SMN-C2 (0.5 μM) and DNA Seq6 (25 μM) in 1× assay buffer was prepared and incubated at room temperature for 10 minutes. 3 μL of SMN-C5 solution at each concentration was added to a 42 μL SMN-C2/DNA Seq6 mixture and incubated at room temperature for 10 minutes. The mixture was then transferred into a microplate (20 μL each well) in duplicates for fluorescence polarization readout. The experimental data were analyzed using Prism 8 software (Graphpad Software, San Diego, CA, USA).

SMN2 exon 7 splicing = assay: Cell-based SMN2 splicing assay in 293T cells (minigene); design: species or system human; settings: Homo sapiens, HEK-293T
[1] = target: dsRNA Seq18 (5′ splice site of SMN2 exon 7 and U1 snRNA duplex); settings: NMR chemical shift assay; cited from earlier work
[2] = target: COVID RNA (SARS-CoV-2 RNA SL5 per FIG. 8); assay: FP binding, Kd for COVID RNA
SARS-CoV-2 SL5 RNA = assay: Deconvolution of the RNA-binding site within SL5; settings: FIG. 7D
[3] = target: DNA Seq6 (UGAAGGAAGGU as deoxyribonucleotides); assay: FP binding assay, DNA Seq6; settings: footnote c: FP assay for DNA Seq6; range = 95% CI; read-out: Kd
Protocol: (§2) All synthetic DNA and RNA oligomers were purchased from Integrated DNA Technologies and reconstituted in nuclease-free water (Invitrogen #AM9932) at 1 mM. The concentration of the oligonucleotides at ˜0.1 mM was calibrated with the A260 value measured by a NanoDrop ND-1000 (Thermo, Waltham, MA, USA) and the predicted extinction coefficient (http://www.oligoevaluator.com) using Lamber-Beer's Law. The risdiplam analogues (1 mM in DMSO) were diluted in 2× assay buffer (40 mM HEPES, 200 mM NaCl for RNA; 40 mM HEPES, 200 mM NaCl, 1 mM MgCl2 for DNA) to make a 1 μM 2× working solution.
as §1

RNA Seq4 […] = assay: FP binding assay, RNA Seq4
Protocol: as §2, §1

[4] = test system: seq 1 (GAUGGAGAG), contains the AUG start codon; assay: FP binding assay, SARS-CoV-2 seq 1 (start codon)
seq 1-RC = assay: FP binding assay, reverse complement of seq 1
in vitro [5] = settings: human
[6] = target: von Hippel-Lindau (VHL) E3 ligase (Homo sapiens, UniProt P40337); settings: cited from earlier work
Sequence of von Hippel-Lindau (VHL) E3 ligase (P40337 54-213 limits assumed, species assumed): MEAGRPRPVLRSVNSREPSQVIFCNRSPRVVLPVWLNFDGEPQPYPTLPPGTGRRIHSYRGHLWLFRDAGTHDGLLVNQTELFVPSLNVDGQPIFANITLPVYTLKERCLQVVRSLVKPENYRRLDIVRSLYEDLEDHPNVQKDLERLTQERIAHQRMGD
Sequence of von Hippel-Lindau (VHL) E3 ligase (Q15369 17-112 partner limits assumed, species assumed): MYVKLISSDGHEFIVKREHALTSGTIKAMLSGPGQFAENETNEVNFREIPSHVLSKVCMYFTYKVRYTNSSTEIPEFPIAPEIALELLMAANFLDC
Sequence of von Hippel-Lindau (VHL) E3 ligase (Q15370 whole entry partner, species assumed): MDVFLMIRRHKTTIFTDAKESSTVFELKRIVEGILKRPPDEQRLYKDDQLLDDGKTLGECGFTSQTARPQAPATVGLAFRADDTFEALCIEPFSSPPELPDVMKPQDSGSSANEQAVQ

gene splicing = settings: cited from earlier work
in vitro [7] = settings: human; remark: listed apart in the source
in vitro [8] = settings: human; remark: listed apart in the source
[9] = test system: SARS-CoV-2 minigene mRNA (5′ and 3′ UTRs, Gaussia luciferase); assay: SARS-CoV-2 minigene HEK293 cell model, RT-qPCR of viral minigene mRNA; assay type: cell-based; settings: 24 hours
SARS-CoV-2 5′ UTR = SARS-CoV-2 5′ UTR expressing 293T cells (Gaussia luciferase cassette), RNA reduction; assay type: cell-based
[10] = test system: SMN2 gene vs forkhead box M1 (FoxM1) gene; settings: cited from earlier work
[11] = cell-based SMN2 splicing assay in 293T cells, read-out: SMN2 EC50

Q: For `Cc1cn2cc(-c3cc(=O)n4cc(N5CCN(C)CC5)ccc4n3)cc(F)c2n1` [SMN-C5, 2-(8-fluoro-2-methylimidazo[1,2-a]pyridin-6-yl)-7-(4-methylpiperazin-1-yl)-4H-pyrido[1,2-a]pyrimidin-4-one], which Kd (5′-biotinylated RNA Seq4) is on record?
A: 8 µM

Q: What about the Kd (DNA Seq6) of the same molecule?
A: 5.8 ± 2.5 µM

Q: And the EC50 (SMN2 exon 7 splicing; [11])?
A: 0.059 ± 0.009 µM

Q: And the Kd [1]?
A: 28 ± 9 µM

Q: With `O=c1oc2cc(N3CCNCC3)ccc2cc1-c1cn2ccc(F)cc2n1` [Compound C30, 3-(7-fluoroimidazo[1,2-a]pyridin-2-yl)-7-(piperazin-1-yl)-2H-chromen-2-one] as the molecule, how does the Kd ([2]; Table 3) read?
A: 0.21 ± 0.04 µM

Q: And the Kd ([2]; Table 4)?
A: 0.21 ± 0.4 µM

Q: What about the “binding site within SL5” value (SARS-CoV-2 SL5 RNA) of the same molecule?
A: selectively binds to the RNA structure containing the bulged G in SL5

Q: What does the source list for `Cc1cn2cc(-c3cc4ccc(N5CCN[C@@H](C)C5)cc4oc3=O)nc2c(C)n1` [Compound C4, (S)-3-(6,8-dimethylimidazo[1,2-a]pyrazin-2-yl)-7-(3-methylpiperazin-1-yl)-2H-chromen-2-one, reference compound]?
A: Kd [3]: 2.9 ± 0.3 µM; Kd (RNA Seq4 […]): 25.4 ± 7.3 µM; EC50 (SMN2 exon 7 splicing; Table 3, read-out: SMN2 Splicing EC50): 0.0139 ± 0.0026 µM; EC50 (SMN2 exon 7 splicing; [11]): 0.014 ± 0.003 µM; Kd ([2]; Table 3): 1.3 ± 0.3 µM; Kd ([2]; Table 4): 1.3 ± 0.3 µM; binding to seq 1 [4]: preferentially binds to seq 1; binding to seq 1-RC (seq 1-RC): does not bind; CC50 (in vitro [5]): > 13 µM

Q: With `Cc1cc([C@H](C(=O)N2C[C@H](O)C[C@H]2C(=O)N[C@@H](CC(=O)N2CCC(C#Cc3ccc(C(=O)N[C@H]4C(C)(C)[C@H](Oc5ccc(C#N)c(Cl)c5)C4(C)C)cc3)CC2)c2ccccc2)C(C)C)on1` [ARD-266] as the molecule, how does the Kd [6] read?
A: micromolar

Q: Which “number of genes whose splicing is significantly affected” value (gene splicing) does the source give for `CCN1CCN(c2cc(C)c3nc(-c4cc5c(C)nc(C)cn5n4)cc(=O)n3c2)CC1` [Compound C3, 2-(4,6-dimethylpyrazolo[1,5-a]pyrazin-2-yl)-7-(4-ethylpiperazin-1-yl)-9-methyl-4H-pyrido[1,2-a]pyrimidin-4-one, reference compound] here?
A: 13 genes

Q: What about the CC50 (in vitro [7]) of the same molecule?
A: > 30 µM

Q: And the CC50 (in vitro [8])?
A: > 30 µM

Q: And the CC50 (in vitro [5])?
A: > 30 µM

Q: For `CCOC(=O)C1=C(Nc2ccccc2)S/C(=C\c2ccc(OCCOCCn3cc(COCCOCCOCCOCCN4CCN(c5ccc6cc(-c7cn8ccc(F)cc8n7)c(=O)oc6c5)CC4)nn3)c(O)c2)C1=O` [Compound C47], which “reduction of viral minigene mRNA level” value ([9]; 25 μM, normalized with GAPDH) is on record?
A: ~50%

Q: What about the “effect on RNA level (RT-qPCR)” value ([9]; different concentrations) of the same molecule?
A: reduce the RNA level in a dose-dependent manner

Q: What about the “maximum potency / activity (RNA reduction level)” value (SARS-CoV-2 5′ UTR) of the same molecule?
A: between those of C64 and C65

Q: Which “sensitivity of SMN2 gene compared to FoxM1” value [10] does the source give for `CCc1nc(C)cn2nc(-c3cc(=O)n4cc(C5CCN(C)CC5)cc(C)c4n3)cc12` [RG-7800] here?
A: ~10 times
